The values that follow come from patent US10104891B2 (priority 2014, dated 2018).

Common to all, as to type: in vivo
One test has as its system Phytophthora infestans. Briefly: whole plant or invertebrate. As to conditions: for pest or weed control at 4 µg/mL: Phytophthora infestans, in Solanum lycopersicum, 96 h, read-out: control value (Test 1); for control value (Test 1): tomato late blight, control value vs untreated section.
The subject of test [1] is Pseudoperonospora cubensis. In words: Test 2: control effect against cucumber downy mildew. As to conditions: control value vs untreated section; for pest or weed control at 4 µg/mL: Pseudoperonospora cubensis, 120 h. In a few lines:
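Cucumber (Sagami hanjiro) at 2-leaf stage sprayed with 4 ppm compound from 10% wettable powder in Tween20 (1/5000); inoculated next day with P. cubensis zoospores, 1.0×10^4 units/ml, 16 hr moist chamber at 22° C. Lesion area rate scored 5 days post-inoculation; control value = (1 − treated/untreated onset area rate)×100.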

The subject of the next test is Plasmopara viticola. Briefly: Test 3: control effect against grape downy mildew. As to conditions: control value vs untreated section; for pest or weed control at 4 µg/mL: Plasmopara viticola, 120 h. Put shortly: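 Neomuscat grape seedlings were sprayed with compound at 4 ppm, diluted from a 10% wettable powder in Tween20 solution. One day later they were inoculated with Plasmopara viticola zoospores at 1.0×10^4 units/ml and held moist at 22° C. for 16 hr. Control value was derived from leaf lesion area at 5 days versus untreated leaves.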

Each structure is given as a SMILES string.

Turning to `CS(=O)(=O)Oc1ccc(Br)c2c1COC(c1csc(C3CCN(C(=O)Cn4nc(C(F)(F)F)cc4C(F)(F)F)CC3)n1)OC2` (stereo not drawn) [Compound 1-123, 4-[4-(6-bromo-9-methylsulfonyloxy-1,5-dihydro-3H-2,4-benzodioxepin-3-yl)-2-thiazolyl]-1-[2-[3,5-bis(trifluoromethyl)-1H-pyrazole-1-yl]acetyl]piperidine], the pest or weed control at 4 µg/mL (in the test with Phytophthora infestans; in test [1]; in the test on Plasmopara viticola) was 100% throughout.

For `CS(=O)(=O)Oc1ccc([N+](=O)[O-])c2c1COC(c1csc(C3CCN(C(=O)Cn4nc(C(F)F)cc4C(F)F)CC3)n1)OC2` (stereo not drawn) [Compound 1-124], the “control value (Test 1)” value in the test on Phytophthora infestans was found to be 100. Also, the “control value (Test 2)” value in test [1] stood at 100. In the test on Plasmopara viticola, the “control value (Test 3)” value was 100.

In the case of `CS(=O)(=O)Oc1ccc(Br)c2c1COC(c1csc(C3CCN(C(=O)Cn4nc(C(F)F)cc4C(F)F)CC3)n1)OC2` (stereo not drawn) [Compound 1-125], the “control value (Test 1)” value in the test with Phytophthora infestans turned out to be 100. The “control value (Test 2)” value in test [1] is reported as 100. The “control value (Test 3)” value in the test with Plasmopara viticola came to 100.

For `O=C(Cn1nc(C(F)F)cc1C(F)F)N1CCC(c2nc(C3OCc4cccc([N+](=O)[O-])c4CO3)cs2)CC1` (stereo not drawn) [Compound 1-126], the “control value (Test 1)” value in the test on Phytophthora infestans came out at 100. For the same compound, in test [1], the “control value (Test 2)” value is reported as 100. Besides, the “control value (Test 3)” value in the test on Plasmopara viticola turned out to be 100.

Regarding `Cc1cc(C(F)(F)F)nn1CC(=O)N1CCN(c2nc(C3OCc4cccc(OS(C)(=O)=O)c4CO3)cs2)CC1` (stereo not drawn) [Compound 1-127], in the test on Phytophthora infestans, the “control value (Test 1)” value is 100. In test [1], the “control value (Test 2)” value was found to be 100. Further, the “control value (Test 3)” value in the test on Plasmopara viticola came to 100.

As for `CS(=O)(=O)Oc1ccc([N+](=O)[O-])c2c1COC(c1csc(C3CCN(C(=O)Cn4nc(C(F)(F)F)cc4C(F)(F)F)CC3)n1)OC2` (stereo not drawn) [Compound 1-128], the “control value (Test 1)” value in the test on Phytophthora infestans worked out at 100. For the same compound, the “control value (Test 2)” value in test [1] was 100. Besides, in the test on Plasmopara viticola, the “control value (Test 3)” value came out at 100.

On to `CS(=O)(=O)Oc1ccc(I)c2c1COC(c1csc(C3CCN(C(=O)Cn4nc(C(F)(F)F)cc4C(F)(F)F)CC3)n1)OC2` (stereo not drawn) [Compound 1-129, 4-[4-(6-iodo-9-methylsulfonyloxy-1,5-dihydro-3H-2,4-benzodioxepin-3-yl)-2-thiazolyl]-1-[2-[3,5-bis(trifluoromethyl)-1H-pyrazole-1-yl]acetyl]piperidine], for which the pest or weed control at 4 µg/mL (in the test on Phytophthora infestans; in test [1]; in the test with Plasmopara viticola) was 100% in each case.

Consider `CS(=O)(=O)Oc1ccc(I)c2c1COC(c1csc(C3CCN(C(=O)Cn4nc(C(F)F)cc4C(F)F)CC3)n1)OC2` (stereo not drawn) [Compound 1-130], for which the “control value (Test 1)” value with Phytophthora infestans came to 100. Besides, the “control value (Test 2)” value in test [1] is reported as 100. Moreover, the “control value (Test 3)” value in the test on Plasmopara viticola was 100.

Turning to `CS(=O)(=O)Oc1c(F)ccc2c1COC(c1csc(C3CCN(C(=O)Cn4nc(C(F)(F)F)cc4C(F)(F)F)CC3)n1)OC2` (stereo not drawn) [Compound 1-131, 4-[4-(7-fluoro-6-methylsulfonyloxy-1,5-dihydro-3H-2,4-benzodioxepin-3-yl)-2-thiazolyl]-1-[2-[3,5-bis(trifluoromethyl)-1H-pyrazole-1-yl]acetyl]piperidine], the pest or weed control at 4 µg/mL (with Phytophthora infestans; in test [1]; in the test with Plasmopara viticola) was 100% in each case.

Regarding `CS(=O)(=O)Oc1c(F)ccc2c1COC(c1csc(C3CCN(C(=O)Cn4nc(C(F)F)cc4C(F)F)CC3)n1)OC2` (stereo not drawn) [Compound 1-132, 4-[4-(7-fluoro-6-methylsulfonyloxy-1,5-dihydro-3H-2,4-benzodioxepin-3-yl)-2-thiazolyl]-1-[2-[3,5-bis(difluoromethyl)-1H-pyrazole-1-yl]acetyl]piperidine], the pest or weed control at 4 µg/mL (with Phytophthora infestans; in test [1]; in the test with Plasmopara viticola) was 100% each time.

For the compound `COc1ccc(C)c2c1COC(c1csc(C3CCN(C(=O)Cn4nc(C(F)(F)F)cc4C(F)(F)F)CC3)n1)OC2` (stereo not drawn) [Compound 1-134], the “control value (Test 1)” value in the test with Phytophthora infestans is 100. The “control value (Test 2)” value in test [1] is reported as 100. Moreover, in the test on Plasmopara viticola, the “control value (Test 3)” value worked out at 100.
